This passage reports IC50, Activity and inhibition results from ChEMBL document CHEMBL3593192, “Synthesis and biological evaluation of novel histone deacetylases inhibitors with nitric oxide releasing activity” (Bioorg Med Chem, 2015).

The source made the active and inactive calls. The rule behind the calls is not given here. Some results are limits rather than exact numbers.

Assay [1] concerns B16. The assay is described as follows: cells. The following applies: Mus musculus, B16, 48 h. It is filed as functional, cell-based.
Description: Cytotoxicity against mouse B16 cells assessed as inhibition of cell proliferation after 48 hrs by MTT assay
Assay [2] can be described thus: cells. The settings on record: Homo sapiens, ES-2, 48 h. It is filed as functional, cell-based, ES2.
Description: Cytotoxicity against human ES2 cells assessed as inhibition of cell proliferation after 48 hrs by MTT assay
The test system of assay [3] is HeLa. The assay is described as follows: cells. It is filed as functional, cell-based. The settings on record: Homo sapiens, 48 h.
Description: Cytotoxicity against human HeLa cells assessed as inhibition of cell proliferation after 48 hrs by MTT assay
Assay [4] deals with U-937. Kind of assay: Cytotoxicity against human U937 cells assessed as inhibition of cell proliferation after 48 hrs by MTT assay. The assay is classed as functional, cell-based. The following applies: U-937, 48 h.
For assay [5], the system named is HEL. Kind of assay: cells. The assay is classed as functional, cell-based. The following applies: Homo sapiens, 48 h.
Description: Cytotoxicity against HEL cells assessed as inhibition of cell proliferation after 48 hrs by MTT assay
Assay [6] in a line: cells. The assay is classed as functional, cell-based. The following applies: Homo sapiens, KG-1, 48 h.
Description: Cytotoxicity against human KG1 cells assessed as inhibition of cell proliferation after 48 hrs by MTT assay
Assay [7] relates to PC-3. The assay is described as follows: cells. The assay is classed as functional, cell-based. The settings on record: Homo sapiens, PC-3, 48 h.
Description: Cytotoxicity against human PC3 cells assessed as inhibition of cell proliferation after 48 hrs by MTT assay
Assay [8] deals with HCT-116. The assay is described as follows: cells. The assay is classed as functional, cell-based. The following applies: Homo sapiens, HCT-116, 48 h.
The test system of assay [9] is HCT-116. Kind of assay: Induction of nitric oxide production in human HCT116 cells at 100 uM after 5 hrs by Griess assay. It is filed as functional, cell-based. A general note: The Griess reaction detects nitrite, a stable product of nitric oxide.
For assay [10], the system named is HCT-116. Kind of assay: Cytotoxicity against nitric oxide scavenger hemoglobin-treated human HCT116 cells assessed as inhibition of cell proliferation at 2 uM after 24 hrs by MTT assay. The assay is classed as functional, cell-based. A general note: Formazan colour is commonly taken as a measure of viable cells.
Assay [11] has as its target Histone deacetylase (HDAC1 and HDAC2) (Homo sapiens, UniProt Q13547+Q92769). The assay is described as follows: Inhibition of HDAC1/2 in human HeLa cells using Boc-Lys (acetyl)-AMC as substrate preincubated for 30 mins followed by substrate addition measured after 30 mins by fluorescence assay. The assay is classed as cell-based.
The test system of assay [12] is HCT-116. Kind of assay: Cytotoxicity against human HCT116 cells assessed as inhibition of cell proliferation after 48 hrs by MTT assay in presence of SAHA. The assay is classed as functional, cell-based. The settings on record: HCT-116, 48 h.

Broadly, the IC50 is the concentration at which inhibition is half-maximal. For `O=C(CCCCCCOC(=O)c1ccc2c(c1)no[n+]2[O-])NO`, the IC50 was 4.97 µM in assay [1]; 5.07 µM in [2]; 9.18 µM in assay [3]; 12.4 µM in assay [4]; 1.26 µM in assay [5]; 0.37 µM in assay [6]. Further, the IC50 came out at 0.95 µM in assay [7], 1.09 µM in assay [8] and 0.0184 µM in assay [11]. Also, the outcome in assay [9] was Active. In addition, the inhibition entry in assay [10] is “inactive”.
For the compound `O=C(CCCCCCCOC(=O)c1ccc2c(c1)no[n+]2[O-])NO`, the IC50 in assay [1] came to 7.99 µM; in [2], 9.23 µM; in assay [3], 5.31 µM; in assay [4] it was 11.9 µM; in assay [5], 1.5 µM; in assay [6], 5.21 µM. The figures for the IC50 in assay [7], in assay [8] and in [11] were 1.39 µM, 2.29 µM and 0.1804 µM, respectively. In addition, the outcome in assay [9] was Active.
Take `O=C(CCCCCCOC(=O)c1cccc2c1no[n+]2[O-])NO`: the IC50 in assay [1] worked out at 18.2 µM; in [2], 21.2 µM; in [3] it was 27.2 µM; in assay [4], 34.6 µM; in [5], 3.71 µM; in assay [6], 2.98 µM. In addition, the concentration for half-maximal inhibition (IC50) is 9.37 µM in assay [7], 1.09 µM in assay [8] and 0.0128 µM in assay [11]. Moreover, the outcome in [9] was Active. The inhibition result in assay [10] was “inactive”.
Turning to `O=C(O)c1ccc2c(c1)no[n+]2[O-]`, the values for the IC50 in assay [12], in [8] and in assay [11] were 11.5 µM, 55.8 µM and > 1000 µM, respectively. Also, in assay [9], the result was Active.
Consider `O=C(O)c1cccc2c1no[n+]2[O-]`, for which the figures for the IC50 in assay [12], in [8] and in [11] were 8.52 µM, 64 µM and > 1000 µM, respectively. In addition, in assay [9], the outcome was Active.
Take `O=C(CCCCCCCOC(=O)c1cccc2c1no[n+]2[O-])NO`: the IC50 in assay [1] was > 80 µM; in assay [2] it was > 80 µM; in [3], 34.2 µM; in assay [4], > 80 µM; in assay [5] it was 12.1 µM; in assay [6] it was 0.53 µM. For the same compound, the IC50 in assay [7] was > 80 µM; in assay [8], > 80 µM; in assay [11], 0.1373 µM.
With `O=C(CCCCCOC(=O)c1cccc2c1no[n+]2[O-])NO`, the IC50 was 27.9 µM in assay [1]; 66.3 µM in assay [2]; 42.1 µM in assay [3]; 21.6 µM in assay [4]; 3.74 µM in assay [5]; 12.4 µM in assay [6]. Besides, the IC50 in assay [7] was 16.9 µM; in assay [8] it was 2.81 µM; in assay [11], 0.017 µM. Further, in assay [9], the outcome was Active.
Consider `O=C(CCCOC(=O)c1ccc2c(c1)no[n+]2[O-])NO`, for which the IC50 in assay [1] is 22.2 µM; in assay [2], 27.1 µM; in [3], 17 µM; in assay [4], 13 µM; in [5], 2.09 µM; in assay [6] it was 4.02 µM. In addition, the IC50 in [7] was 6.58 µM; in [8], 2.06 µM; in assay [11], 5.5697 µM.
Take `O=C(CCCCCCC(=O)Nc1ccccc1)NO` [VORINOSTAT]: in [4], the IC50 came out at 4.82 µM.
As for `O=C(CCCCCOC(=O)c1ccc2c(c1)no[n+]2[O-])NO`, the IC50 in assay [1] stood at 30.2 µM; in assay [2] it was 20.6 µM; in assay [3], 17.3 µM; in [4] it was 33.4 µM; in assay [5], 11.6 µM; in [6], 3.69 µM. Besides, the half-inhibitory concentration (IC50) in assay [7] worked out at 12.4 µM; in [8], 3.36 µM; in assay [11], 0.437 µM. In assay [9], the outcome was Active.
Consider `O=C(CCCOC(=O)c1cccc2c1no[n+]2[O-])NO`, for which the IC50 in assay [1] was > 80 µM; in assay [2], 73.8 µM; in assay [3], 72 µM; in assay [4] it was 53.9 µM; in assay [5], 6.6 µM; in [6], 12.4 µM. Further, the IC50 in [7] turned out to be 13.4 µM; in [8] it was 16.2 µM; in [11], 6.8072 µM.
As to `O=C(CCCCOC(=O)c1ccc2c(c1)no[n+]2[O-])NO`, the IC50 in assay [1] came out at 24 µM; in assay [2], 25 µM; in assay [3], 15.9 µM; in assay [4], 19.9 µM; in assay [5], 1.21 µM; in [6], 8.19 µM. For the same compound, the figures for the IC50 in assay [7], in assay [8] and in [11] were 12.7 µM, 2.63 µM and 2.207 µM, respectively.
With `O=C(CCCCOC(=O)c1cccc2c1no[n+]2[O-])NO`, the IC50 in [1] was 30.5 µM; in [2], 44.4 µM; in [3], 20.2 µM; in assay [4], 11.3 µM; in assay [5], 3.14 µM; in [6], 6.69 µM. For the same compound, the figures for the IC50 in [7], in [8] and in assay [11] were 14.2 µM, 2.73 µM and 0.2576 µM, respectively.
